Reference: ChEMBL document CHEMBL1909046, “DrugMatrix in vitro pharmacology data”
Where a SMILES comes first, the peptide text is derived from it. Bridges are numbered along the chain shown (N, C = ends). [ ]: non-standard residue; d: D form. The star is where a group is joined. Ileψ(thiazoline)Cys = CC[C@H](C)[C@H](N)C1=N[C@H](C(=O)*)CS1; dOrn = NCCC[C@@H](N)C(=O)O

Legend:
[1] = target: T1, C-X-C chemokine receptor type 2 (Homo sapiens, UniProt P25025); format: cell membranes, Membrane; details: cho-k1; note: in other assays of this panel Not Active means under 50% inhibition at 10 µM
T1 sequence (P25025 whole entry): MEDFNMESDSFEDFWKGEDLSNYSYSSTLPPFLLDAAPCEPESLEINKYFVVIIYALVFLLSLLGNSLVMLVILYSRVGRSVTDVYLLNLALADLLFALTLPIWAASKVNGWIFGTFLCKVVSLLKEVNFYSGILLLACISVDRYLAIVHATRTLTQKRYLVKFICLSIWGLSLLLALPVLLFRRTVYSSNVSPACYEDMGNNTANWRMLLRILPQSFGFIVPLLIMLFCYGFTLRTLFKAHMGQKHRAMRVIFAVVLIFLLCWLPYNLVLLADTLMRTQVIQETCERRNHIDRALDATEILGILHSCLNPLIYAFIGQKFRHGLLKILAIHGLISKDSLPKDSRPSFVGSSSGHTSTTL

[2] = DRUGMATRIX: Imidazoline I2, Central radioligand binding (ligand: [3H] Idazoxan); format: cell membranes, Rattus norvegicus, Wistar, Cerebral cortex, Membrane; details: Not Active = under 50% inhibition at 10 µM
Neutrophil elastase = target: T2, Neutrophil elastase (Homo sapiens, UniProt P08246); format: tissue-based;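 note: inhibition of neutrophil elastase enzyme activity, measured with a p-nitroanilide-linked peptide substrate; in other assays of this panel Not Active means under 50% inhibition at 10 µM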
T2 sequence (P08246 whole entry): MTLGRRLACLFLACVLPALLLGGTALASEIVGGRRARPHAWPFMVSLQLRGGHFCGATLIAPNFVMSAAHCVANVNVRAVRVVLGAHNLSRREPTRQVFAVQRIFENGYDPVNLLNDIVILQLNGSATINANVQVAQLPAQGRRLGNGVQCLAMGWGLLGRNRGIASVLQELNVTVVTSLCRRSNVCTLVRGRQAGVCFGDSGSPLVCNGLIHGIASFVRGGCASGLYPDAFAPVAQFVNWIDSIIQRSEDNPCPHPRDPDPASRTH

[3] = target: T3, Alpha-1B adrenergic receptor (Rattus norvegicus, UniProt P15823); assay: DRUGMATRIX: Alpha-1B adrenergic receptor radioligand binding (ligand: prazosin); format: cell membranes, Wistar, Liver, Membrane; details: Not Active = under 50% inhibition at 10 µM
T3 sequence (P15823 whole entry): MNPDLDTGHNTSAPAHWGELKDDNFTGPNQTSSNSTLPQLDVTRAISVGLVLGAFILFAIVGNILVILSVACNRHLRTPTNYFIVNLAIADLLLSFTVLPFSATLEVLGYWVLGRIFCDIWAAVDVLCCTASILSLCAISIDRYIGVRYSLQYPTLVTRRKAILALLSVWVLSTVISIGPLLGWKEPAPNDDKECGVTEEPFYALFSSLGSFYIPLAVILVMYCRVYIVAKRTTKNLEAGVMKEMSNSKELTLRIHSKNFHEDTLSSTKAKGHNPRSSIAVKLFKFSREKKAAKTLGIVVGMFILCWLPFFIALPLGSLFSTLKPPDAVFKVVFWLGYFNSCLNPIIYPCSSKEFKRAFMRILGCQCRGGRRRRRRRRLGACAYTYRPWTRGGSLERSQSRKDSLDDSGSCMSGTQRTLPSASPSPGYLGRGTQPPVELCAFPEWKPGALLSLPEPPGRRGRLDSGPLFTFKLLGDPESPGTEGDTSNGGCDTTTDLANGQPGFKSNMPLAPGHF

[4] = target: T4, Type-2 angiotensin II receptor (Homo sapiens, UniProt P50052); format: cell-based; details: cho-k1; note: in other assays of this panel Not Active means under 50% inhibition at 10 µM
T4 sequence (P50052 whole entry): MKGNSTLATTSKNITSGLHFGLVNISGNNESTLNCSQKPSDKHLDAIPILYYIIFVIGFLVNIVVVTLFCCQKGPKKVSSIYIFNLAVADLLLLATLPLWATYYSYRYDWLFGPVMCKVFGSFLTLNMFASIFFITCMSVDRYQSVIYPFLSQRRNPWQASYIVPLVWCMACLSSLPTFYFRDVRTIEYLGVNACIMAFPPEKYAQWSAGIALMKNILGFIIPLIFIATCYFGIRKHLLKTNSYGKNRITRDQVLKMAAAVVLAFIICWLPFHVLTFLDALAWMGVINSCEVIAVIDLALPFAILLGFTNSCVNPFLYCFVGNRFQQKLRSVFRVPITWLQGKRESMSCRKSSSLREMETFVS

[5] = target: T5, 5-hydroxytryptamine receptor 1A (Rattus norvegicus, UniProt P19327); format: cell membranes, CHO-K1, Membrane; details: cho-k1; note: in other assays of this panel Not Active means under 50% inhibition at 10 µM
T5 sequence (P19327 whole entry): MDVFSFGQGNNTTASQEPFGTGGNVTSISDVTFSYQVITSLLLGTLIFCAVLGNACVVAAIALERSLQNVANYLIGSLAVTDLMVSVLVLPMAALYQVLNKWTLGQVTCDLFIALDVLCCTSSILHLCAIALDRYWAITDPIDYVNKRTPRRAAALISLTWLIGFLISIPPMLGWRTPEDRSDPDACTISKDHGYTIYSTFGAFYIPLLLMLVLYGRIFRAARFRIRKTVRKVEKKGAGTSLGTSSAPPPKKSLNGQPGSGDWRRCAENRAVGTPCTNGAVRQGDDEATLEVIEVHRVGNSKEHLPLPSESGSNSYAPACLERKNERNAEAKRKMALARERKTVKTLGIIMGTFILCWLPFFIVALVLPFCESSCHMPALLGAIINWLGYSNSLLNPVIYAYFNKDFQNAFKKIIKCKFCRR

D(1A) dopamine receptor = D(1A) dopamine receptor (Homo sapiens, UniProt P21728); assay: DRUGMATRIX: Dopamine D1 radioligand binding (ligand: [3H] SCH-23390); format: cell membranes, CHO, Membrane; details: cho; Not Active = under 50% inhibition at 10 µM
Sequence of D(1A) dopamine receptor (P21728 whole entry): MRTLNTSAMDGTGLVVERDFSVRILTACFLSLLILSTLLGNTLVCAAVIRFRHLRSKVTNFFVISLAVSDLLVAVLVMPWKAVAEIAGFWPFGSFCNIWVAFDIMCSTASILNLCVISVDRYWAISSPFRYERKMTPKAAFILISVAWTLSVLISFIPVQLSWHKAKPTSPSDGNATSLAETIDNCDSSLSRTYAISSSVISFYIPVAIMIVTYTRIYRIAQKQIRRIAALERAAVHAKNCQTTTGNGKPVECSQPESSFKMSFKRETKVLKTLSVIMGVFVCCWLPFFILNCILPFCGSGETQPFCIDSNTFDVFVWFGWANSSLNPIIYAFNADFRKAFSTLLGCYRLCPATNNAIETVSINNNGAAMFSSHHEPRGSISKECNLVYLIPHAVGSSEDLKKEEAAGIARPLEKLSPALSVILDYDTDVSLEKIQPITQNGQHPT

CC(/C=C1\SC(=S)N(CC(=O)O)C1=O)=C\c1ccccc1
Not Active: IC50 [1] | IC50 [2] | Ki [2] | IC50 (Neutrophil elastase) | IC50 [3] | IC50 [4] | IC50 [5] | IC50 (D(1A) dopamine receptor)

CCCCCCCCCc1ccc(O)cc1 [4-NONYLPHENOL]
Not Active: IC50 [1] | IC50 [2] | Ki [2] | IC50 (Neutrophil elastase) | IC50 [3] | IC50 [4] | IC50 [5] | IC50 (D(1A) dopamine receptor)

Cc1[nH]cnc1CN1CCc2c(c3ccccc3n2C)C1=O [ALOSETRON]
Not Active: IC50 [1] | IC50 [2] | Ki [2] | IC50 (Neutrophil elastase) | IC50 [3] | IC50 [4] | IC50 [5] | IC50 (D(1A) dopamine receptor)

CC1(C)S[C@@H]2[C@H](NC(=O)[C@H](N)c3ccc(O)cc3)C(=O)N2[C@H]1C(=O)O [AMOXICILLIN]
Not Active: IC50 [1] | IC50 [2] | Ki [2] | IC50 (Neutrophil elastase) | IC50 [3] | IC50 [4] | IC50 [5] | IC50 (D(1A) dopamine receptor)

N=C(N)NCCCCNC(=N)N.O=S(=O)(O)O [ARCAINE SULFATE]
Not Active: IC50 [1] | IC50 [2] | Ki [2] | IC50 (Neutrophil elastase) | IC50 [3] | IC50 [4] | IC50 [5] | IC50 (D(1A) dopamine receptor)

CC[C@H](C)[C@H](N)C1=N[C@H](C(=O)N[C@@H](CC(C)C)C(=O)N[C@H](CCC(=O)O)C(=O)N[C@H](C(=O)N[C@H]2CCCCNC(=O)[C@H](CC(N)=O)NC(=O)[C@@H](CC(=O)O)NC(=O)[C@H](Cc3cnc[nH]3)NC(=O)[C@@H](Cc3ccccc3)NC(=O)[C@H]([C@@H](C)CC)NC(=O)[C@@H](CCCN)NC2=O)[C@@H](C)CC)CS1 [BACITRACIN] ({Ileψ(thiazoline)Cys}-L[dE]IK[dOrn]I[dF]H[dD]N; lactam 4-C)
Not Active: IC50 [1] | IC50 [2] | Ki [2] | IC50 (Neutrophil elastase) | IC50 [3] | IC50 [4] | IC50 [5] | IC50 (D(1A) dopamine receptor)

CC(=O)O[C@]1(C(C)=O)CC[C@H]2[C@@H]3C=C(Cl)C4=CC(=O)CC[C@]4(C)[C@H]3CC[C@@]21C [CHLORMADINONE ACETATE]
Not Active: IC50 [1] | IC50 [2] | Ki [2] | IC50 (Neutrophil elastase) | IC50 [3] | IC50 [4] | IC50 [5] | IC50 (D(1A) dopamine receptor)

C[C@]12CCC(=O)C=C1CC[C@@H]1[C@@H]2C(=O)C[C@@]2(C)[C@H]1CC[C@]2(O)C(=O)CO [CORTISONE]
Not Active: IC50 [1] | IC50 [2] | Ki [2] | IC50 (Neutrophil elastase) | IC50 [3] | IC50 [4] | IC50 [5] | IC50 (D(1A) dopamine receptor)

CC(=O)OCC(=O)[C@@]1(OC(C)=O)[C@@H](C)C[C@H]2[C@@H]3C[C@H](F)C4=CC(=O)C=C[C@]4(C)[C@@]3(F)[C@@H](O)C[C@@]21C [DIFLORASONE DIACETATE]
Not Active: IC50 [1] | IC50 [2] | Ki [2] | IC50 (Neutrophil elastase) | IC50 [3] | IC50 [4] | IC50 [5] | IC50 (D(1A) dopamine receptor)

CCc1cccc2c3c([nH]c12)C(CC)(CC(=O)O)OCC3 (stereo unspecified) [ETODOLAC]
Not Active: IC50 [1] | IC50 [2] | Ki [2] | IC50 (Neutrophil elastase) | IC50 [3] | IC50 [4] | IC50 [5] | IC50 (D(1A) dopamine receptor)

CC(=O)[C@@]1(O)CC[C@H]2[C@@H]3C[C@H](C)C4=CC(=O)C=C[C@]4(C)[C@@]3(F)[C@@H](O)C[C@@]21C [FLUOROMETHOLONE]
Not Active: IC50 [1] | IC50 [2] | Ki [2] | IC50 (Neutrophil elastase) | IC50 [3] | IC50 [4] | IC50 [5] | IC50 (D(1A) dopamine receptor)

CC1(C)[C@@H](O[C@H]2O[C@H](C(=O)O)[C@@H](O)[C@H](O)[C@H]2O[C@@H]2O[C@H](C(=O)O)[C@@H](O)[C@H](O)[C@H]2O)CC[C@]2(C)[C@H]3C(=O)C=C4[C@@H]5C[C@@](C)(C(=O)O)CC[C@]5(C)CC[C@@]4(C)[C@]3(C)CC[C@@H]12 [GLYCYRRHIZIN]
Not Active: IC50 [1] | IC50 [2] | Ki [2] | IC50 (Neutrophil elastase) | IC50 [3] | IC50 [4] | IC50 [5] | IC50 (D(1A) dopamine receptor)
